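These data come from cells grown in 96-well plates and exposed to compound for 48 hours at five concentrations. GI50 is the concentration that inhibits growth by half.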 Calls of active or inactive are those of the source. Cut-off read from the data, not from the text of the source: active = GI50 up to about 1.1 µM and inactive = higher.
What was measured:
Assay in all cases: NCI tumour cell line growth inhibition, 48 h
[1] = test system: A498
[2] = test system: SN12C
[3] = test system: MDA-MB-435
[4] = test system: COLO 205
[5] = test system: 786-0
[6] = test system: CAKI-1
[7] = test system: IGROV-1
[8] = test system: EKVX
[9] = test system: UACC-62
[10] = test system: K562
[11] = test system: SK-MEL-28
[12] = test system: M14
[13] = test system: UO-31
[14] = test system: HOP-92
[15] = test system: NCI/ADR-RES
[16] = test system: SNB-75
[17] = test system: PC-3
[18] = test system: RPMI-8226
[19] = test system: HL-60

Measured: GI50

O=C(/C=C/c1cccc(Oc2ccccc2)c1)NCc1ccc(C(=O)NCc2ccccc2)cc1
inactive: [1] 51.5 µM | [2] > 100 µM | [3] > 100 µM | [4] > 100 µM | [5] 29 µM | [6] 43.8 µM | [7] 79.8 µM | [8] > 100 µM | [9] 79.8 µM | [10] > 100 µM | [11] > 100 µM | [12] > 100 µM | [13] > 100 µM | [14] 37.8 µM | [15] 35.3 µM | [16] 12.1 µM | [17] > 100 µM | [18] > 100 µM

C=CC(=O)Nc1ccc(NC(=O)C=C)c2c1C(=O)c1ccccc1C2=O
inactive: [1] > 100 µM | [2] 35.8 µM | [3] > 10 µM | [4] > 100 µM | [5] 21.5 µM | [7] > 100 µM | [8] > 100 µM | [9] 21.4 µM | [10] 15.7 µM | [11] 33.5 µM | [12] 29.6 µM | [13] 46.1 µM | [15] > 100 µM | [19] 3.86 µM | [17] 40.8 µM | [18] 3.03 µM

C[C@]12CC[C@H](O)CC1=CC[C@@H]1C2CC[C@]2(C)Nc3c(cnn3-c3ccc(F)cc3)CC12 (some centres undefined)
inactive: [1] 2.17 µM | [2] 37.4 µM | [3] 41.2 µM | [5] 3.09 µM | [6] 64.6 µM | [7] > 100 µM | [8] 79.6 µM | [9] 14.6 µM | [10] 2.25 µM | [11] 3.49 µM | [12] > 100 µM | [13] > 39.4 µM | [14] 21.4 µM | [15] 21.5 µM | [16] 2.71 µM | [19] 4.12 µM | [17] 14.1 µM

N#Cc1ncn(CCO)c1N
inactive: [1] > 100 µM | [2] > 100 µM | [3] > 100 µM | [4] > 100 µM | [5] > 100 µM | [6] > 100 µM | [7] > 100 µM | [8] > 100 µM | [9] > 100 µM | [10] > 100 µM | [11] > 100 µM | [12] > 100 µM | [13] > 100 µM | [15] > 100 µM | [16] > 100 µM | [19] > 100 µM | [17] > 100 µM | [18] > 100 µM

CC(C)(C)[Si](C)(C)OC1/C(=C/C#N)C(n2ccc(=O)[nH]c2=O)OC1CO (centres undefined)
inactive: [1] > 100 µM | [3] > 100 µM | [4] > 100 µM | [5] > 100 µM | [6] > 100 µM | [9] > 100 µM | [10] 96.2 µM | [11] > 100 µM | [12] > 100 µM | [13] > 100 µM | [14] 3.01 µM | [15] > 100 µM | [17] > 100 µM

O=c1[nH]nc(Cc2ccc(Cl)cc2)n1Nc1ccccc1
inactive: [1] > 100 µM | [2] > 100 µM | [3] > 100 µM | [4] > 100 µM | [5] 73.6 µM | [6] > 100 µM | [7] > 100 µM | [8] > 100 µM | [9] > 100 µM | [10] > 100 µM | [11] > 100 µM | [12] > 100 µM | [13] > 100 µM | [14] > 100 µM | [15] > 100 µM | [16] 48.8 µM | [17] > 100 µM

COc1ccc(C(OCC2OC(n3ccc(NC(=O)c4ccccc4)nc3=O)C(O)C2O)(c2ccccc2)c2ccccc2)cc1 (centres undefined)
inactive: [1] 1.62 µM | [2] 1.82 µM | [3] 2.63 µM | [4] 2 µM | [5] 2.12 µM | [6] 2.93 µM | [7] 2.08 µM | [8] 2.72 µM | [9] 8.26 µM | [10] 2.38 µM | [11] 2.72 µM | [12] 2.03 µM | [13] 3.42 µM | [15] 2.37 µM | [16] 9.55 µM | [19] 2.24 µM | [17] 3.09 µM | [18] 2.42 µM

C[C@@H]1CCC2C(C)(C)C(/C=C\C=O)C3(C)OC213 (some centres undefined)
inactive: [1] > 100 µM | [3] 27.5 µM | [4] 25.4 µM | [5] 28.8 µM | [6] > 100 µM | [7] 24.6 µM | [8] 37.8 µM | [9] 53.2 µM | [10] 33.6 µM | [11] 44 µM | [12] 65.2 µM | [13] 52.5 µM | [14] 26.5 µM | [15] 30 µM | [16] 29.1 µM | [17] 41.2 µM | [18] 28.7 µM

CN1CCCOC(c2ccc(Cl)cc2)O1 (centres undefined)
inactive: [1] > 100 µM | [2] > 100 µM | [3] > 100 µM | [4] > 100 µM | [5] > 100 µM | [6] > 100 µM | [7] > 100 µM | [8] > 100 µM | [9] > 100 µM | [10] > 100 µM | [11] > 100 µM | [12] > 100 µM | [13] > 100 µM | [14] 65 µM | [15] > 100 µM | [16] > 100 µM | [17] > 100 µM

Cc1cc(N=C2C=C(Br)C(=O)C(Br)=C2)cc(CN(CC(=O)O)CC(=O)O)c1O
inactive: [1] > 100 µM | [2] > 100 µM | [3] > 100 µM | [4] > 100 µM | [5] > 100 µM | [6] > 100 µM | [7] > 100 µM | [8] > 100 µM | [9] > 100 µM | [10] > 100 µM | [11] > 100 µM | [12] > 100 µM | [13] > 100 µM | [15] > 100 µM | [16] > 100 µM | [19] > 100 µM | [17] > 100 µM | [18] > 100 µM

NC(Cc1ccccc1)(C(=O)O)C(=O)O
inactive: [1] > 100 µM | [2] > 100 µM | [3] > 100 µM | [4] > 100 µM | [5] > 100 µM | [6] 14.8 µM | [7] > 100 µM | [8] > 100 µM | [9] > 100 µM | [10] > 100 µM | [11] > 100 µM | [12] > 100 µM | [13] > 100 µM | [14] > 100 µM | [15] > 100 µM | [17] > 100 µM | [18] > 100 µM

CN(C)Cc1cc(/C=C/C(=O)c2ccc(Br)cc2)cc(CN(C)C)c1O
inactive: [1] 13.6 µM | [2] 15.6 µM | [3] 16.9 µM | [4] 14.6 µM | [5] 16 µM | [6] 8.47 µM | [7] 8.95 µM | [8] 20.2 µM | [9] 20.4 µM | [10] 25.1 µM | [11] 17.1 µM | [12] 31.2 µM | [13] 10.7 µM | [15] 36.6 µM | [16] 12.5 µM | [19] 6.84 µM | [17] 26.6 µM | [18] 3.54 µM
